# Laboratory results reported in patent USRE42461E1, “Hydroxy-substituted azetidinone compounds useful as hypocholesterolemic agents” (Schering Corporation, priority 1994, dated 2011).
# Read-outs that look alike come from different tables or passages of the source.
# System: Hyperlipidemic Hamster
# Assay: In Vivo Assay of Hypolipidemic Agents Using the Hyperlipidemic Hamster
# Details: 0.5% cholesterol diet 7 days, oral gavage once daily in corn oil, percent change versus control, negative = lowering; for change in vivo at 10 mg/kg / change in vivo at 7 mg/kg / change in vivo at 3 mg/kg / change in vivo at 8 mg/kg / change in vivo at 5 mg/kg / change in vivo at 50 mg/kg / change in vivo at 1 mg/kg: Mesocricetus auratus, 168 h
# Procedure: The in vivo activity of the compounds of formula I can be determined by the following procedure: […]
# In Vivo Assay of Hypoligidemic Hypolipidemic Agents Using the Hyperlipidemic Hamster
# Hamsters are separated into groups of six and given a controlled cholesterol diet (Purina Chow #5001 containing 0.5% cholesterol) for seven days. Diet consumption is monitored to determine dietary cholesterol exposure in the face of test compounds. The animals are dosed with the test compound once daily beginning with the initiation of diet. Dosing is by oral gavage of 0.2 mL of corn oil alone (control group) or solution (or suspension) of test compound in corn oil. All animals moribund or in poor physical condition are euthanized. After seven days, the animals are anesthetized by intramuscular (IM) injection of ketamine and sacrificed by decapitation. Blood is collected into vacutainer tubes containing EDTA for plasma lipid analysis and the liver excised for tissue lipid analysis. Lipid analysis is conducted as per published procedures (Schnitzer-Polokoff, R., et al. Comp. Biochem. Physiol., 99A, 4 (1991), p. 665-670) and data is reported as percent reduction of lipid versus control.
# Using the test procedures described above, the following in vivo data were obtained for the exemplified compounds. Data is reported as percent change (i.e., percent reduction in cholesterol esters) versus control, therefore, negative numbers indicate a positive lipid-lowering effect.
# [1] = liver cholesterol esters, dose 10 mg/kg, read-out: % Reduction Cholest. Esters
# [2] = po, dose 10 mg/kg, read-out: % Reduction Serum Cholest.
# [3] = liver cholesterol esters, read-out: % Reduction Cholest. Esters
# [4] = po, read-out: % Reduction Serum Cholest.
# [5] = liver cholesterol esters, dose 1 mg/kg
# [6] = liver cholesterol esters, dose 10 mg/kg
# [7] = liver cholesterol esters, dose 1 mg/kg, read-out: % Reduction Cholest. Esters
# [8] = po, dose 1 mg/kg, read-out: % Reduction Serum Cholest.
compound,measurement,setting,value
COc1ccc([C@@H]2[C@H]([C@H](O)CCc3ccccc3)C(=O)N2c2ccccc2)cc1 [Example 3H],change in vivo at 10 mg/kg,[1],-86%
same,change in vivo at 10 mg/kg,[2],-41%
COc1ccc([C@H]2[C@H](CC[C@H](O)c3ccccc3)C(=O)N2c2ccc(OC)cc2)cc1 [Example 4D],change in vivo at 7 mg/kg,[3],0%
same,change in vivo at 7 mg/kg,[4],9%
COc1ccc(N2C(=O)C(CC[C@H](O)c3ccccc3)[C@H]2c2ccc(O)cc2)cc1 (stereo partly shown) [Example 4F],change in vivo at 3 mg/kg,[3],-95%
same,change in vivo at 3 mg/kg,[4],-29%
O=C1C(CC[C@@H](O)c2ccc(F)cc2)[C@@H](c2ccc(O)cc2)N1c1ccc(F)cc1 (stereo partly shown) [Example 6B],change in vivo at 3 mg/kg,[3],-92%
same,change in vivo at 3 mg/kg,[4],-40%
COc1ccc([C@@H]2C(CC[C@H](O)c3ccccc3)C(=O)N2c2ccc(OC)cc2)cc1 (stereo partly shown) [Example 4B],change in vivo at 8 mg/kg,[3],-89%
same,change in vivo at 8 mg/kg,[4],-37%
COc1ccc([C@@H]2C(CC[C@@H](O)c3ccccc3)C(=O)N2c2ccc(OC)cc2)cc1 (stereo partly shown) [Example 4A],change in vivo at 5 mg/kg,[3],-54%
same,change in vivo at 5 mg/kg,[4],0%
"CC(=O)Oc1ccc([C@@H]2[C@@H](CC[C@@H](OC(C)=O)c3ccc(F)cc3)C(=O)N2c2ccc(F)cc2)cc1 [Example 8C, 4(S)-(4-acetyloxyphenyl)-3(R)-(3(R)-acetyloxiy-3-(4-fluorophenyl)propyl)-1-(4-fluorophenyl)-2-azetidinone]",% Reduction Serum Cholest.,dose 1 mg/kg,−14%
same,% Reduction Cholest. Esters,[5],−37%
COc1ccc([C@H]2C(C[C@@H](OC(C)=O)c3ccccc3)C(=O)N2c2ccccc2)cc1 (stereo partly shown) [Example 2],change in vivo at 50 mg/kg,[3],0%
same,change in vivo at 50 mg/kg,[4],0%
COc1ccc([C@@H]2C([C@@H](O)c3cccc4ccccc34)C(=O)N2c2ccccc2)cc1 (stereo partly shown) [Example 3M],% Reduction Serum Cholest.,dose 10 mg/kg,0%
same,% Reduction Cholest. Esters,[6],−22%
COc1ccc(N2C(=O)C(CC[C@H](O)c3ccccc3)[C@H]2c2ccc(OC(C)=O)cc2)cc1 (stereo partly shown) [Example 6D],change in vivo at 10 mg/kg,[1],-95%
same,change in vivo at 10 mg/kg,[2],-46%
COCOc1ccc(C(O)CCC2C(=O)N(c3ccc(OC)cc3)[C@@H]2c2ccc(OC)cc2)cc1 (stereo partly shown) [Example 5],change in vivo at 10 mg/kg,[1],-64%
same,change in vivo at 10 mg/kg,[2],0%
CC(=O)Oc1ccc([C@@H]2C(CC[C@@H](OC(C)=O)c3ccc(Cl)cc3)C(=O)N2c2ccc(Cl)cc2)cc1 (stereo partly shown) [Example 8F],change in vivo at 1 mg/kg,[7],-94%
same,change in vivo at 1 mg/kg,[8],-43%
O=C1[C@H](CC[C@H](O)c2ccc(F)cc2)[C@@H](c2ccc(OCc3ccccc3)cc2)N1c1ccc(F)cc1 [Example 6A-1],% Reduction Serum Cholest.,dose 1 mg/kg,−43%
same,% Reduction Cholest. Esters,[5],−93%
COc1ccc([C@H]2C(C[C@@H](O)c3ccccc3)C(=O)N2c2ccccc2)cc1 (stereo partly shown) [Example 1A],change in vivo at 50 mg/kg,[3],0%
same,change in vivo at 50 mg/kg,[4],-2.3%
COc1ccc(N2C(=O)C(CC[C@@H](O)c3ccccc3)[C@H]2c2ccc(O)cc2)cc1 (stereo partly shown) [Example 4E],change in vivo at 3 mg/kg,[3],-46%
same,change in vivo at 3 mg/kg,[4],0%
"CC(=O)Oc1ccc([C@@H]2[C@@H](CC[C@H](OC(C)=O)c3ccc(F)cc3)C(=O)N2c2ccc(F)cc2)cc1 [Example 8D, 4(S)-(4-acetyloxyphenyl)-3(R)-(3(S)-acetyloxy-3-(4-fluorophenyl)propyl)-1-(4-fluorophenyl)-2-azetidinone]",change in vivo at 1 mg/kg,[7],-98%
same,change in vivo at 1 mg/kg,[8],-49%
O=C1C(CC[C@H](O)c2ccc(F)cc2)[C@@H](c2ccc(O)cc2)N1c1ccc(F)cc1 (stereo partly shown) [Example 6A],change in vivo at 1 mg/kg,[7],-95%
same,change in vivo at 1 mg/kg,[8],-59%
COc1ccc([C@@H]2C([C@@H](O)c3cccc4ccccc34)C(=O)N2c2ccccc2)cc1 (stereo partly shown) [Example 3L],% Reduction Serum Cholest.,dose 10 mg/kg,−15%
same,% Reduction Cholest. Esters,[6],−21%
CC(=O)Oc1ccc([C@@H]2C(CC[C@H](OC(C)=O)c3ccc(Cl)cc3)C(=O)N2c2ccc(Cl)cc2)cc1 (stereo partly shown) [Example 8E],change in vivo at 3 mg/kg,[3],-66%
same,change in vivo at 3 mg/kg,[4],-22%
COc1ccc([C@@H]2[C@H](C(O)CCc3ccccc3)C(=O)N2c2ccccc2)cc1 (stereo partly shown) [Example 3C],change in vivo at 50 mg/kg,[3],-92%
same,change in vivo at 50 mg/kg,[4],-60%
COc1ccc(N2C(=O)C(CC[C@@H](O)c3ccccc3)[C@H]2c2ccc(OC(C)=O)cc2)cc1 (stereo partly shown) [Example 6C],change in vivo at 3 mg/kg,[3],-48%
same,change in vivo at 3 mg/kg,[4],0%
O=C1[C@@H]([C@H](O)CCc2ccccc2)[C@@H](c2ccc(O)cc2)N1c1ccc(F)cc1 [Example 10],change in vivo at 3 mg/kg,[3],-77%
same,change in vivo at 3 mg/kg,[4],-26%
COc1ccc([C@@H]2C([C@@H](O)CCc3ccccc3)C(=O)N2c2ccccc2)cc1 (stereo partly shown) [Example 3A],change in vivo at 50 mg/kg,[3],-69%
same,change in vivo at 50 mg/kg,[4],-31%
COc1ccc([C@@H]2C(C[C@@H](O)c3ccccc3)C(=O)N2c2ccccc2)cc1 (stereo partly shown) [Example 1B],change in vivo at 50 mg/kg,[3],-39%
same,change in vivo at 50 mg/kg,[4],-15%
"COc1ccc([C@@H]2[C@@H](CC[C@H](OC(C)=O)c3ccccc3)C(=O)N2c2ccc(OC)cc2)cc1 [Example 8B, 1,4(S)-bis(4-methoxyphenyl)-3(R)-(3(S)-acetoxy-3-phenylpropyl)-2-azetidinone]",change in vivo at 3 mg/kg,[3],-95%
same,change in vivo at 3 mg/kg,[4],-50%
"COc1ccc([C@@H]2[C@@H](CC[C@@H](OC(C)=O)c3ccccc3)C(=O)N2c2ccc(OC)cc2)cc1 [Example 8A, 1,4(S)-bis(4-methoxyphenyl)-3(R)-(3(R)-acetoxy-3-phenylpropyl)-2-azetidinone]",change in vivo at 3 mg/kg,[3],-44%
same,change in vivo at 3 mg/kg,[4],0%
